Measurements published in patent US6376175B1, “Methods of discovering chemicals capable of functioning as gene expression modulators” (OSI Pharmaceuticals, Inc., priority 1989, dated 2002).

B1: Interferon-gamma: proteinaceous positive regulator (protein, UniProt P01579 24-161, looked up)
Interferon gamma: QDPYVKEAENLKKYFNAGHSDVADNGTLFLGILKNWKEESDRKIMQSQIVSFYFKLFKNFKDDQSIQKSVETIKEDMNVKFFNSNKKKRDDFEKLTNYSVTDLNVQRKAIHELIQVMAELSPAAKTGKRKRSQMLFRG

Columns and labels:
G-CSF mRNA = experiment: S1 nuclease protection, G-CSF mRNA in 5637 cells; format: cell-based, human; settings: 18 hours, 542 (10, 50, 250 microM), 1255 (20, 100, 500 microM), 1793 (0.25, 1.2, 6.25 microM), 1904 (20, 100 microM)
Description: (§1) S1 Nuclease protection assays were carried out as described in reference 94.
(§2) To further confirm, that compounds that had been identified in a luciferase expression assay using a G-CSF specific reporter cell line would be active in inducing transcription of the endogenous G-CSF gene, cells from the parental cell line 5637 used to construct the reporter cell line were incubated with cycloheximide (25 microg/ml), DMSO (0.5%, solvent control) and low, medium and high concentrations of the compounds 542 (10, 50, 250 microM),1255 (20, 100, 500 microM), 1793(0.25, 1.2, 6.25 microM) and 1904 (20, 100 microM) for 18 hours. RNA was extracted and the concentration of G-CSF, GM-CSF and gamma-actin mRNA was determined by the S1 protection method as described in Materials and Methods. The positions of G-CSF GM-CSF and gamma-actin specific protected fragments are indicated (G, GM, A) at the left side of the gel (FIG. 54).

FRE cells = format: cell-based
Description: To determine cytotoxic concentrations of chemicals registering as positives in the High-Throughput luciferase assay the MTT cytotoxicity assay was employed (95). In this assay, a tetrazolium salt [3-(4,5-dimethylthiazol-2-yl)-2,5-diphenyl-tetrazolium bromide, MTT] is reduced to a colored formazan product by reducing enzymes present only in living metabolically active cells.
Cells were seeded into 96 well microtiterplates (20 000 cells/well) and cultured overnight. Compound #542 was added at various concentrations and the cells were incubated for 6 hours. Luciferase activity was determined as described in Materials and Methods. The MTT-colorimetric assay was carried out on identically treated samples of FRE cells. Induction of luciferase reporter signal (plain line) and on inhibition of respiration (dashed line) are plotted versus the concentrations of compound (FIG. 56). The ED50 for induction of luciferase activity differed from the ED50 for inhibition of respiration by a factor of almost 10, which might indicate that compound #542 exerts a specific effect on G- and GM-CSF transcription.

GM-CSF mRNA = experiment: S1 nuclease protection, GM-CSF mRNA in 5637 cells; format: cell-based, human; settings: 18 hours, low, medium and high concentrations
Description: as §1, §2

secreted G-CSF protein = experiment: Two-antibody sandwich immunoassay of G-CSF secreted by 5637 bladder carcinoma cells; format: cell-based, human; settings: 5637 cells, 48 hours, serum-containing media; TNF-alpha 5 ng/ml; #542 50 uM; #1780 1 uM and 0.2 uM; FIG. 55
Description: Supernatants from 5637 bladder carcinoma cells incubated with chemicals registering as positives in the G-CSF promoter/luciferase High-Throughput assay were assayed for secreted G-CSF protein using the two-antibody sandwich immunoassay (96). The G-CSF Assay kit manufactured by Oncogene Science, Inc. was used and the manufacturer's instructions were followed.
The levels of G-CSF in the cell supernatants were determined by a sandwich-antibody assay as described in Materials and Methods (FIG. 55).

endogenous G-CSF mRNA = experiment: Northern blot of endogenous G-CSF mRNA in 5637 cells; format: cell-based, human; settings: compared to solvent DMSO, normalized with beta-actin probe
Description: Total cellular RNA was isolated from the G21 cell clone or from untransfected 5637 cells following incubation for 6 hours with various transcriptionally modulating chemicals identified in the high-throughput screen. Cells were grown in serum free medium as described above. Total cellular RNA was isolated using the RNAZol method (CINNA/BIOTECX, Friendswood, Tex., Laboratories International, Inc.). Cells were resuspended and lysed with RNAZol solution (1.5 ml/9 cm petri dish) and the RNA was solubilized by passing the lysate a few times through a pipette. Chloroform was added to the homogenate (0.1 ml/1 ml), and samples were shaken for 15 seconds followed by a 5 minutes incubatoin on ice. After centrifuging for 10 minutes, the upper phase was collected and an equal volume of isopropanol was added. Samples were incubated for 45 minutes at −20 C, and the RNA was pelleted for 15 minutes at 12,000×g at 4 C. The RNA pellet was then washed with 70% ethanol and dried briefly under vacuum.
Total cellular RNA was isolated from 5637 cells following incubation with chemicals as described above and electrophoresed in a 1% Agarose-[…] Formaldehyde gel. The RNA was transferred to Duralon-UV nylon filters (Stratagene, La Jolla, Calif.) using the manufacturer's recommended protocol. The filters were prehybridized for 4 hours (prehybridizing solution=5X SSC, 50 mM sodium pyrophosphate, 10X Denhardt's solution, 10% dextran sulfate, 7% and 250 µg/ml denatured ssDNA) and then hybridized in the same solution for 16 hours at 65 C in the presence of G-CSF or Beta-Actin (Oncor, Gaithersburg, Md.) specific probes. The G-CSF probe was a 0.6 kb AflII o Xhol fragment which contained most of exon 5 of the human G-CSF gene. The B-actin probe was used as a control probe to normalize for the total amount of RNA. […] Bands were excised and counted in a liquid scintillation counter (LKB, Gaithersburg, Md.), and counts obtained with the G-CSF specific probe were normalized relative to the counts obtained with the B-Actin specific probe. […]

| Molecule | amount of G-CSF mRNA (S1 protection) (G-CSF mRNA) | amount of GM-CSF mRNA (S1 protection) (GM-CSF mRNA) | endogenous G-CSF mRNA production (Northern blot) (endogenous G-CSF mRNA) | also measured |
| --- | --- | --- | --- | --- |
| Nc1nc(=O)n([C@H]2C[C@H](O)[C@@H](CO)O2)cc1Br [Chemical 542, 5-Bromo-2′-deoxycytidine] | increased mRNA production | increased the amount of GM-CSF mRNA | – | factor between ED50 for induction of luciferase activity (G21) and ED50 for inhibition of respiration (FRE cells) (FRE cells): ~10; G-CSF secretion into media (secreted G-CSF protein): increased G-CSF secretion |
| O=c1[nH]c(=O)n([C@H]2C[C@H](O)[C@@H](CO)O2)cc1Br [Chemical 543, 5-Bromo-2′-deoxyuridine] | – | showed similar activity | – | – |
| CN(C)c1ccc(C(=C2C=CC(=[N+](C)C)C=C2)c2ccc([N+](C)(C)C)cc2)cc1.[Cl-].[Cl-] [Chemical 670, Methyl Green] | – | – | stimulated production of G-CSF mRNA | – |
| Clc1cc(Cl)cc(Br)c1 [Chemical 1255, 1-Bromo-3,5-dichlorobenzene] | increased mRNA production | – | stimulated production of G-CSF mRNA | – |
| CN(C)c1ccc(C(=C2C=CC(=[N+](C)C)C=C2)c2ccc(N(C)C)cc2)cc1 [Chemical 1780, Crystal Violet] | – | – | – | G-CSF secretion into media (secreted G-CSF protein): increased G-CSF secretion |
| CN(C)C(=S)SCC#N [Chemical 1793, Cyanomethyl-N,N-dimethyl dithiocarbomate] | increased mRNA production | increased the amount of GM-CSF mRNA | – | – |
| Cl.Nc1c2ccccc2nc2ccccc12 [Chemical 1904, 9-Aminoacridine hydrochloride] | increased mRNA production | – | – | – |
| B1 | – | – | increased G-CSF mRNA production | – |
